Results published in US20100189683A1, “Pulsatile Dosing of Gossypol for Treatment of Disease” (Ascenta Therapeutics, Inc., priority 2008, published 2010).
Marks after values point to notes of the source that are not given here.

Tested on: patients with advanced cancer
Assay: Clinical efficacy (stable disease for 60 days or more) of (−)-gossypol by dosing schedule
Type: in vivo, human
Protocol: Following (−)-gossypol administration to patients with advanced cancer, clinical efficacy (e.g., patients having stable disease for 60 days or more) was monitored according to the following dosing schedules: “Daily” dosing: 5 to 60 mg/day of (−)-gossypol on 21 days per 28 day cycle; “BID×3d” dosing: 30 to 80 mg BID of (−)-gossypol on 3 consecutive days (e.g., Monday-Tuesday-Wednesday) repeated every other week per 28 day cycle; and “Weekly” dosing: 80 to 200 mg of (−)-gossypol once weekly per 28 day cycle. […] Tumor types represented in this study included: non-small cell lung cancer, non-Hodgkin lymphoma, chronic lymphocytic leukemia/small lymphocytic lymphoma, colon cancer, breast cancer, small cell lung cancer, head and neck cancer, sarcoma, hepatocellular cancer, pancreatic cancer, esophageal cancer, cholangiocarcinoma, carcinoid/neuroendocrine cancer, Hodgkin's lymphoma, endometrial cancer, adrenal cancer, melanoma, gastrointestinal stromal tumor, renal cancer, bladder cancer, and ovarian cancer.

`Cc1cc2c(C(C)C)c(O)c(O)c(C=O)c2c(O)c1-c1c(C)cc2c(C(C)C)c(O)c(O)c(C=O)c2c1O` [(−)-gossypol] was tested. Which “Median # (%) of patients with stable disease ≧60 days” value (shortened to “Median # (%) of patients”) (BID × 3 d, N = 21) did it give?
The value was 6 (24) # (%).

And the “Median duration of days of stable disease (range)” value (“Median duration of days … (range)” below) (BID × 3 d, N = 21)?
Its value is 180 (72-443) days.

What about the “Median # (%) of patients” value (Daily, N = 38) of the same compound?
Its value is 6 (16) # (%).

What about the “Median duration of days … (range)” value (Daily, N = 38) of the same compound?
Its value is 82 (56-341) days.

And the “Median # (%) of patients” value (Weekly, N = 12)?
Its value is 2 (13) # (%).

And the “Median duration of days … (range)” value (Weekly, N = 12)?
Its value is 69 (58-80) days.

What about the “Median duration of days of stable disease” value (pulsatile dosing (BID×3d) as compared to continuous daily dosing) of the same compound?
Its value is “longer median duration of days of stable disease”.
